How the values were obtained:
Human IDO1 = molecular target: T1, Human IDO1 (Homo sapiens, UniProt P14902); test: IDO Kynurenine Assay with Human IDO1/HEK293 Cells; format: cell-based; details: 20 hours incubation, kynurenine absorbance at 490 nm, read-out: HEK human IDO-1 (IC50)
T1 construct: expressed in transfected cells; host or cells: HEK293
Procedure: IDO Kynurenine Assay with Human IDO1/HEK293 Cells
Human IDO1/HEK293 cells were seeded at 10,000 cells per 50 uL per well with RPMI/phenol red free media contains 10% FBS in a 384-well black wall clear bottom tissue culture plate (Matrix Technologies LLC) 125 nL of certain concentration of compound was then added to each well using ECHO liquid handling systems. The cells were incubated for 20 hours in 37° C. incubator with 5% CO2.
(§1) The compound treatments were stopped by adding Trichloroacetic Acid (Sigma-Aldrich) to a final concentration at 0.2%. The cell plate was further incubated at 50° C. for 30 minute. The equal volume supernatant (20 uL) and 0.2% (w/v) Ehrlich reagent (4-dimethylaminobenzaldehyde, Sigma-Aldrich) in glacial acetic acid were mixed in a new clear bottom 384-well plate. This plate was then incubated at room temperature for 30 minute. The absorbance at 490 nm was measured on Envision plate reader.
Compound IC50 values were calculated using the counts of 500 nM of a reference standard treatment as one hundred percent inhibition, and counts of no compound but DMSO treatment as zero percent inhibition.

[1] = molecular target: T2, IDO (IFNγ-treated Hela cells) (Homo sapiens, UniProt P14902); test: IDO Kynurenine Assay with Hela Cells; format: cell-based; details: IFNγ 10 ng/ml, 20 hours incubation, kynurenine absorbance at 490 nm, read-out: Hela Cells LLE_IDO_ABS_DR (IC50)
T2 construct: endogenous in cells; host or cells: Hela cells treated with IFNγ (10 ng/ml)
Procedure: IDO Kynurenine Assay with Hela Cells
Hela cells were seeded at 30,000 cells per well in 40 ul RPMI/phenol red free media contains 10% FBS in a 384-well black wall clear bottom tissue culture plate (Matrix Technologies LLC). 270 nl of certain concentration of compound was then added to each well using ECHO liquid handling systems. 40 ul of IFNγ (R&D, 285-IF-100) at final concentration of 10 ng/ml was then added to column 2-24 with media to column 1 as control. The cells were incubated for 20 hours in 37° C. incubator with 5% CO2.
as §1, with “trichloroacetic acid” for “Trichloroacetic Acid”
Compound IC50 values were calculated using the counts of no IFNγ control as one hundred percent inhibition, and counts of no compound but DMSO treatment as zero percent inhibition.

T2 sequence (P14902 whole entry): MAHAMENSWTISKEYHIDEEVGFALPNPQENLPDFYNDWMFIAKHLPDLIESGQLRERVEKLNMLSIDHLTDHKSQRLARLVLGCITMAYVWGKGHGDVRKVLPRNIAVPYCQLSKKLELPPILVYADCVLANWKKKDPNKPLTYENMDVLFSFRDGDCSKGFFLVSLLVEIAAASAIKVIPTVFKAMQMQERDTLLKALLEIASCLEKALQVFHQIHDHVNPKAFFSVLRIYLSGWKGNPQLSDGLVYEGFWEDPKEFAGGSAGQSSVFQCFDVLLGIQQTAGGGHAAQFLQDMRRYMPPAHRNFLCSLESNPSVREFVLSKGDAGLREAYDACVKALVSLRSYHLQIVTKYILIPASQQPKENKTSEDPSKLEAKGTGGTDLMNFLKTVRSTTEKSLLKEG
T1 sequence (P14902 whole entry): as above

IC50 (Human IDO1) [nM]	IC50 [1] [nM]	SMILES
2.99	10	CC(C)CN(CC(C)C)c1ccc(-c2ccccc2-c2nnn[nH]2)cc1NC(=O)Cc1ccc(F)cc1 [Example 12, N-(4-(diisobutylamino)-2′-(1H-tetrazol-5-yl)biphenyl-3-yl)-2-(4-fluorophenyl)acetamide]
3.17	–	CC(C)CN(CC(C)C)c1ccc(-c2ccccc2-c2nnn[nH]2)cc1NC(=O)Cc1ccc(I)cc1 [Example 49, N-(4-(diisobutylamino)-2′-(1H-tetrazol-5-yl)-[1,1′-biphenyl]-3-yl)-2-(4-iodophenyl)acetamide]
–	10	CC(C)CN(Cc1ccccc1)c1ccc(-c2ccccc2-c2nnn[nH]2)cc1NC(=O)Cc1ccc(C#N)cc1 [Example 54]
120	–	Cc1ccc(CC(=O)Nc2cc(-c3ccccc3-c3nnn[nH]3)ccc2N(CC(C)C)CC(C)C)cn1 [Example 55]
7440	–	COC(C)(C)CCN(c1ccc(-c2ccccc2-c2nnn[nH]2)cc1NC(=O)Cc1ccc(C)nc1)C1CCCCC1 [Example 56]
360	–	CC(C)CN(CC(C)C)c1ccc(-c2ccccc2-c2nnn[nH]2)cc1NC(=O)Cc1ccncc1 [Example 57]
10	–	Cc1ccc(CC(=O)Nc2cc(-c3ccccc3-c3nnn[nH]3)cc(F)c2N(CC(C)C)C2CCCCC2)cc1 [Example 58]
80	–	Cc1ccc(CC(=O)Nc2cc(-c3ccccc3C(=O)O)cc(F)c2N(CC(C)C)C2CCCCC2)cc1 [Example 59]
30	–	Cc1ccc(CC(=O)Nc2cc(-c3cc(F)ccc3C(=O)O)cc(F)c2N(CC(C)C)C2CCCCC2)cc1 [Example 60]
20	–	CCC(CC)N(CC(C)C)c1ccc(-c2cc(F)ccc2C(=O)O)cc1NC(=O)Cc1ccc(C)cc1 [Example 61]
20	–	CCC(CC)N(CC(C)C)c1ccc(-c2ccccc2C(=O)O)cc1NC(=O)Cc1ccc(C)cc1 [Example 62]
4.37	–	CCC(CC)N(CC(C)C)c1ccc(-c2ccccc2-c2nnn[nH]2)cc1NC(=O)Cc1ccc(C)cc1 [Example 63]
40	–	CC(C)CN(CC(C)C)c1ccc(-c2ccccc2-c2nnn[nH]2)cc1NC(=O)Cc1cc(Br)cs1 [Example 64]
20	–	CC(C)CN(CC(C)C)c1ccc(-c2ccccc2-c2nnn[nH]2)cc1NC(=O)Cc1cccs1 [Example 65]
20	–	CC(C)CN(CC(C)C)c1ccc(-c2ccccc2-c2nnn[nH]2)cc1NC(=O)Cc1ccsc1 [Example 66]
20	–	CC(C)CN(CC(C)C)c1ccc(-c2ccccc2-c2nnn[nH]2)cc1NC(=O)Cc1ccc(Cl)nc1 [Example 67]
4810	–	CC(C)CN(CCOC(C)C)c1ccc(-c2ccccc2C(=O)O)cc1NC(=O)Cc1ccc(C#N)cc1 [Example 68]
170	–	CC(C)CN(CCOC(C)C)c1ccc(-c2ccccc2-c2nnn[nH]2)cc1NC(=O)Cc1ccc(C#N)cc1 [Example 69]

IC50 (Human IDO1) [nM]	IC50 [1] [nM]	SMILES
2930	–	CC(C)CN(CCOC(C)C)c1ccc(-c2cc(F)ccc2C(=O)O)cc1NC(=O)Cc1ccc(C#N)cc1 [Example 70]
270	–	N#Cc1ccc(CC(=O)Nc2cc(-c3ccccc3-c3nnn[nH]3)ccc2N(CCCC(F)(F)F)C2CCCCC2)cc1 [Example 71]
1860	–	N#Cc1ccc(CC(=O)Nc2cc(-c3cc(F)ccc3C(=O)O)ccc2N(CCCC(F)(F)F)C2CCCCC2)cc1 [Example 72]
2110	–	N#Cc1ccc(CC(=O)Nc2cc(-c3ccccc3C(=O)O)ccc2N(CCCC(F)(F)F)C2CCCCC2)cc1 [Example 73]
10	3.06	Cc1ccc(CC(=O)Nc2cc(-c3ccccc3-c3nnn[nH]3)ccc2N(Cc2ccccc2)CC(C)C)cc1 [Example 74]
–	1810	Cc1ccc(CC(=O)Nc2cc(-c3ccccc3-c3nnn[nH]3)ccc2N2CCC(F)(F)C2)cc1 [Example 75]
–	280	O=C(Cc1ccccc1C(F)(F)F)Nc1cc(-c2ccccc2-c2nnn[nH]2)ccc1-n1cccn1 [Example 76]
300	–	Cc1cc(CC(=O)Nc2cc(-c3cc(F)ccc3C(=O)O)ccc2N(CC(C)C)C2CCCCC2)on1 [Example 77]
–	4440	CC(C)(C)CC(=O)Nc1cc(-c2ccccc2-c2nnn[nH]2)ccc1-n1cccn1 [Example 78]
–	2510	N#Cc1ccc(CC(=O)Nc2cc(-c3ccccc3-c3nnn[nH]3)ccc2N2CC3CC2CN3Cc2ccccc2)cc1 (stereo not drawn) [Example 79]
5.13	8.44	Cc1ccc(CC(=O)Nc2cc(-c3ccccc3-c3nnn[nH]3)ccc2N2CC3CC2CN3Cc2ccccc2)cc1 (stereo not drawn) [Example 80]
110	100	O=C(Cc1ccccc1C(F)(F)F)Nc1cc(-c2ccccc2-c2nnn[nH]2)ccc1N1CC2CC1CN2Cc1ccccc1 (stereo not drawn) [Example 81]
–	3610	CC(C)(C)CC(=O)Nc1cc(-c2ccccc2-c2nnn[nH]2)ccc1N1CC2CC1CN2Cc1ccccc1 (stereo not drawn) [Example 82]
–	8920	O=C(Nc1cc(-c2ccccc2-c2nnn[nH]2)ccc1N1CC2CC1CN2Cc1ccccc1)[C@H](O)c1ccccc1 (stereo partly drawn) [Example 83]
30	–	CC(C)CN(c1cc(F)c(-c2ccccc2C(=O)O)cc1NC(=O)Cc1ccc(C#N)cc1)C1CCCCC1 [Example 84]
40	–	CC(C)CN(c1cc(F)c(-c2ccccc2-c2nnn[nH]2)cc1NC(=O)Cc1ccc(C#N)cc1)C1CCCCC1 [Example 85]
140	–	Cc1cc(CC(=O)Nc2cc(-c3cc(F)ccc3C(=O)O)c(F)cc2N(CC(C)C)C2CCCCC2)on1 [Example 87]
